Laboratory results published in patent US10947252B2, “Inhibitors of KEAP1-Nrf2 protein-protein interaction” (Janssen Pharmaceutica NV, priority 2018, dated 2021).

Experiments:
[1] = test system: Glo-Response ARE-luc2P HEK293 cell line; assay: ARE luciferase reporter cell-based assay; conditions: Homo sapiens, HEK293, 24 h, average of results obtained;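 note: luciferase signal tracks Nrf2 activation of the ARE once compounds disrupt KEAP1-Nrf2 binding, read with One-Glo reagent, DMSO serving as low control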
[2] = molecular target: Kelch domain of human KEAP1 (321-624 aa) (Homo sapiens (Human), UniProt Q14145); assay: KEAP1 KELCH ThermoFluor binding assay; conditions: KEAP Kelch […], 1,8-ANS, pH 7.0, average of results obtained, read-out: Tf Kd;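 note: Ligand-induced melting temperature shift of E. coli-expressed KEAP1 Kelch protein, Kd estimated from concentration-response curves of ΔTm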
Kelch domain of human KEAP1 (321-624 aa), sequence (Q14145 321-624): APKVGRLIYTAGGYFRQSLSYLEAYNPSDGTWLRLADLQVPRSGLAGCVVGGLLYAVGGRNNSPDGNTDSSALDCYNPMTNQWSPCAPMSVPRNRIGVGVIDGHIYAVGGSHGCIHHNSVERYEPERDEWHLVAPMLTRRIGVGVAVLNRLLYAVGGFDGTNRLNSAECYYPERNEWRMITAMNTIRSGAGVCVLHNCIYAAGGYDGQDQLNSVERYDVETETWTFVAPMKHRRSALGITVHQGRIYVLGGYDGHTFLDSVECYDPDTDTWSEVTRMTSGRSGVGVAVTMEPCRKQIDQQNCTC

Compound | Kd [2] | EC50 [1]
COC1CCN(CCOc2nc3c(cc2C)S(=O)(=O)N(Cc2cc([C@@H](c4ccn5c(C(F)(F)F)nnc5c4C)C(C)(C)C(=O)O)ccc2C)CC2(CC2)O3)CC1 (single isomer, unassigned) [Example 378, (*S)-3-(3-((7′-(2-(4-Methoxypiperidin-1-yl)ethoxy)-8′-methyl-1′,1′-dioxidospiro[cyclopropane-1,4′-pyrido[2,3-b][1,4,5]oxathiazepin]-2′(3′H)-yl)methyl)-4-methylphenyl)-2,2-dimethyl-3-(8-methyl-3-(trifluoromethyl)-[1,2,4]triazolo[4,3-a]pyridine-7-yl)propanoic Acid] | < 1 nM | 4 nM
Cc1ccc([C@@H](c2ccn3c(C(F)F)nnc3c2C)C(C)(C)C(=O)O)cc1CN1CC2(CCOCC2)Oc2nc(OCCN3CCCCC3)c(C)cc2S1(=O)=O (single isomer, unassigned) [Example 379, (*S)-3-(3-(Difluoromethyl)-8-methyl-[1,2,4]triazolo[4,3-a]pyridine-7-yl)-2,2-dimethyl-3-(4-methyl-3-((8′-methyl-1′,1′-dioxido-7′-(2-(piperidin-1-yl)ethoxy)-2,3,5,6-tetrahydrospiro[pyran-4,4′-pyrido[2,3-b][1,4,5]oxathiazepin]-2′(3′H)-yl)methyl)phenyl)propanoic Acid] | < 1 nM | 12.3 nM
Cc1ccc([C@H](c2ccn3c(C(F)(F)F)nnc3c2C)C(C)(C)C(=O)O)cc1CN1CC2(CC2)Oc2nc(N[C@@H](C)CN3CCCCC3)c(C)cc2S1(=O)=O (single isomer, unassigned) [Example 380, (*R)-2,2-Dimethyl-3-(4-methyl-3-((8′-methyl-1′,1′-dioxido-7′-(((S)-1-piperidin-1-yl)propan-2-yl)amino)spiro[cyclopropane-1,4′-pyrido [2,3-b][1,4,5]oxathiazepin]-2′(3′H)-yl)methyl)phenyl)-3-(8-methyl-3-(trifluoromethyl)-[1,2,4]triazolo[4,3-a]pyridine-7-yl)propanoic Acid] | < 1 nM | 14.1 nM

Continued, in another order:

Kd [2] | Compound | EC50 [1]
< 1 nM | Cc1ccc([C@@H](c2ccn3c(C(F)F)nnc3c2C)C(C)(C)C(=O)O)cc1CN1CC2(CC2)Oc2nc(OCCN3CCCCC3)c(C)cc2S1(=O)=O (single isomer, unassigned) [Example 374, (*S)-3-(3-(Difluoromethyl)-8-methyl-[1,2,4]triazolo[4,3-a]pyridine-7-yl)-2,2-dimethyl-3-(4-methyl-3-((8′-methyl-1′,1′-dioxido-7′-(2-(piperidin-1-yl)ethoxy)spiro[cyclopropane-1,4′-pyrido[2,3-b][1,4,5]oxathiazepin]-2′(3′H)-yl)methyl)phenyl)propanoic Acid] | 4.8 nM
< 1 nM | Cc1ccc([C@@H](c2ccn3c(C(F)F)nnc3c2C)C(C)(C)C(=O)O)cc1CN1CC2(CC2)Oc2nc(OCCN3CCCC3)c(C)cc2S1(=O)=O (single isomer, unassigned) [Example 375, (*S)-3-(3-(Difluoromethyl)-8-methyl-[1,2,4]triazolo[4,3-a]pyridine-7-yl)-2,2-dimethyl-3-(4-methyl-3-((8′-methyl-1′,1′-dioxido-7′-(2-(pyrrolidin-1-yl)ethoxy)spiro[cyclopropane-1,4′-pyrido[2,3-b][1,4,5]oxathiazepin]-2′(3′H)-yl)methyl)phenyl)propanoic Acid] | 11.5 nM
< 1 nM | Cc1ccc([C@@H](c2ccn3c(C(F)F)nnc3c2C)C(C)(C)C(=O)O)cc1CN1CC2(CCOCC2)Oc2nc(OCCN3CCCC3)c(C)cc2S1(=O)=O (single isomer, unassigned) [Example 377, (*S)-3-(3-(Difluoromethyl)-8-methyl-[1,2,4]triazolo[4,3-a]pyridine-7-yl)-2,2-dimethyl-3-(4-methyl-3-((8′-methyl-1′,1′-dioxido-7′-(2-(pyrrolidin-1-yl)ethoxy)-2,3,5,6-tetrahydrospiro[pyran-4,4′-pyrido[2,3-b][1,4,5]oxathiazepin]-2′(3′H)-yl)methyl)phenyl)propanoic Acid] | 44.9 nM
